According to patent publication US12077503B2, “Substituted cyclic amides and their use as herbicides” (FMC CORPORATION, priority 2015, dated 2024):

Key:
Format in all cases: in vivo
[1] = test system: barnyardgrass (Echinochloa crus-galli); test: Test G Pre-Emergence Protocol; settings: Echinochloa crus-galli, pre-emergence, 312 h, evaluated after 13 days
In short: (§1)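 Herbicidal effect was rated 13 days post-application on a scale where 100 equals total damage. Spraying took place the day after sowing, using 15.625, 62.5 or 250 g/ha of compound in a 50:50 acetone/water solution with 0.5% Tween 20.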

corn (Zea mays) [2] = test: Test G Pre-Emergence Protocol; settings: Zea mays, pre-emergence, 312 h, evaluated after 13 days
In short: as §1

[3] = test system: giant foxtail (Setaria faberi); test: Test G Pre-Emergence Protocol; settings: Setaria faberi, pre-emergence, 312 h, evaluated after 13 days
In short: as §1

[4] = test system: ivy-leaved morning glory (Ipomoea hederacea); test: Test G Pre-Emergence Protocol; settings: Ipomoea, pre-emergence, 312 h, evaluated after 13 days
In short: as §1

[5] = test system: redroot pigweed (Amaranthus retroflexus); test: Test G Pre-Emergence Protocol; settings: Amaranthus retroflexus, pre-emergence, 312 h, evaluated after 13 days
In short: as §1

[6] = test system: velvetleaf (Abutilon theophrasti); test: Test G Pre-Emergence Protocol; settings: Abutilon theophrasti, pre-emergence, 312 h, evaluated after 13 days
In short: as §1

[7] = test system: barnyardgrass (Echinochloa crus-galli); test: Test G Post-Emergence Protocol; settings: Echinochloa crus-galli, post-emergence, 312 h
In short: (§2)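 Scores run 0 (no damage) to 100 (total damage) and were taken 13 days after spraying. Plants had been raised in pots for 8 days under glasshouse control (24/16 °C, 14 h photoperiod, 65% humidity) and then treated at 15.625, 62.5 or 250 g/ha.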

corn (Zea mays) [8] = test: Test G Post-Emergence Protocol; settings: Zea mays, post-emergence, 312 h
In short: as §2

[9] = test system: giant foxtail (Setaria faberi); test: Test G Post-Emergence Protocol; settings: Setaria faberi, post-emergence, 312 h
In short: as §2

[10] = test system: ivy-leaved morning glory (Ipomoea hederacea); test: Test G Post-Emergence Protocol; settings: Ipomoea, post-emergence, 312 h
In short: as §2

[11] = test system: redroot pigweed (Amaranthus retroflexus); test: Test G Post-Emergence Protocol; settings: Amaranthus retroflexus, post-emergence, 312 h
In short: as §2

[12] = test system: velvetleaf (Abutilon theophrasti); test: Test G Post-Emergence Protocol; settings: Abutilon theophrasti, post-emergence, 312 h
In short: as §2

Question: How did the pest or weed control at 15.625 g/ha ([1]; 15.625 g ai/ha, read-out: Barnyard grass damage rating (100=total damage to plant; 0=no damage to plant)) turn out when `CN1C[C@@H](c2cnc(Cl)c(F)c2)[C@H](C(=O)Nc2cccc(F)c2F)C1=O` (racemic) [Compound 1486] was run?
Answer: 30%

Question: What about the pest or weed control at 62.5 g/ha ([1]; 62.5 g ai/ha, 100=total damage to plant, 0=no damage to plant, read-out: plant damage rating, Barnyardgrass) of the same compound?
Answer: 60%

Question: And the pest or weed control at 250 g/ha ([1]; 250 g ai/ha, read-out: Barnyardgrass damage rating (100=total damage to plant; 0=no damage to plant))?
Answer: 90%

Question: And the plant injury at 15.625 g/ha (corn (Zea mays) [2]; 15.625 g ai/ha, read-out: Corn damage rating (100=total damage to plant; 0=no damage to plant))?
Answer: 10%

Question: What about the plant injury at 62.5 g/ha (corn (Zea mays) [2]; 62.5 g ai/ha, 100=total damage to plant, 0=no damage to plant, read-out: plant damage rating, Corn) of the same compound?
Answer: 20%

Question: And the plant injury at 250 g/ha (corn (Zea mays) [2]; 250 g ai/ha, read-out: Corn damage rating (100=total damage to plant; 0=no damage to plant))?
Answer: 40%

Question: And the pest or weed control at 15.625 g/ha ([3]; 15.625 g ai/ha, read-out: Foxtail, Giant damage rating (100=total damage to plant; 0=no damage to plant))?
Answer: 40%

Question: And the pest or weed control at 62.5 g/ha ([3]; 62.5 g ai/ha, 100=total damage to plant, 0=no damage to plant, read-out: plant damage rating, Foxtail, Giant)?
Answer: 90%

Question: And the pest or weed control at 250 g/ha ([3]; 250 g ai/ha, read-out: Foxtail, Giant damage rating (100=total damage to plant; 0=no damage to plant))?
Answer: 90%

Question: And the pest or weed control at 15.625 g/ha ([4]; 15.625 g ai/ha, read-out: Morning-glory, Ivy-leaved damage rating (100=total damage to plant; 0=no damage to plant))?
Answer: 0%

Question: What about the pest or weed control at 62.5 g/ha ([4]; 62.5 g ai/ha, 100=total damage to plant, 0=no damage to plant, read-out: plant damage rating, Morningglory, Ivy-leaved) of the same compound?
Answer: 0%

Question: What about the pest or weed control at 250 g/ha ([4]; 250 g ai/ha, read-out: Morningglory, Ivy-leaved damage rating (100=total damage to plant; 0=no damage to plant)) of the same compound?
Answer: 0%

Question: And the pest or weed control at 15.625 g/ha ([5]; 15.625 g ai/ha, read-out: Pigweed, Redroot damage rating (100=total damage to plant; 0=no damage to plant))?
Answer: 0%

Question: And the pest or weed control at 62.5 g/ha ([5]; 62.5 g ai/ha, 100=total damage to plant, 0=no damage to plant, read-out: plant damage rating, Pigweed, Redroot)?
Answer: 0%

Question: What about the pest or weed control at 250 g/ha ([5]; 250 g ai/ha, read-out: Pigweed, Redroot damage rating (100=total damage to plant; 0=no damage to plant)) of the same compound?
Answer: 60%

Question: And the pest or weed control at 15.625 g/ha ([6]; 15.625 g ai/ha, read-out: Velvetleaf damage rating (100=total damage to plant; 0=no damage to plant))?
Answer: 0%

Question: And the pest or weed control at 62.5 g/ha ([6]; 62.5 g ai/ha, 100=total damage to plant, 0=no damage to plant, read-out: plant damage rating, Velvetleaf)?
Answer: 0%

Question: What about the pest or weed control at 250 g/ha ([6]; 250 g ai/ha, read-out: Velvetleaf damage rating (100=total damage to plant; 0=no damage to plant)) of the same compound?
Answer: 10%

Question: What about the pest or weed control at 15.625 g/ha ([7]; 15.625 g ai/ha, evaluated after 13 days (100=total damage to plant; 0=no damage to plant), read-out: Barnyardgrass damage rating) of the same compound?
Answer: 40%

Question: And the pest or weed control at 62.5 g/ha ([7]; 62.5 g ai/ha, evaluated after 13 days, read-out: Barnyardgrass damage rating (100=total damage to plant; 0=no damage to plant))?
Answer: 60%

Question: And the pest or weed control at 250 g/ha ([7]; 250 g ai/ha, evaluated after 13 days, read-out: damage to plant, Barnyardgrass (100=total damage to plant; 0=no damage to plant))?
Answer: 70%

Question: What about the plant injury at 15.625 g/ha (corn (Zea mays) [8]; 15.625 g ai/ha, evaluated after 13 days (100=total damage to plant; 0=no damage to plant), read-out: Corn damage rating) of the same compound?
Answer: 10%

Question: What about the plant injury at 62.5 g/ha (corn (Zea mays) [8]; 62.5 g ai/ha, evaluated after 13 days, read-out: Corn damage rating (100=total damage to plant; 0=no damage to plant)) of the same compound?
Answer: 10%

Question: What about the plant injury at 250 g/ha (corn (Zea mays) [8]; 250 g ai/ha, evaluated after 13 days, read-out: damage to plant, Corn (100=total damage to plant; 0=no damage to plant)) of the same compound?
Answer: 60%

Question: And the pest or weed control at 15.625 g/ha ([9]; 15.625 g ai/ha, evaluated after 13 days (100=total damage to plant; 0=no damage to plant), read-out: Foxtail, Giant damage rating)?
Answer: 60%

Question: What about the pest or weed control at 62.5 g/ha ([9]; 62.5 g ai/ha, evaluated after 13 days, read-out: Foxtail, Giant damage rating (100=total damage to plant; 0=no damage to plant)) of the same compound?
Answer: 60%

Question: What about the pest or weed control at 250 g/ha ([9]; 250 g ai/ha, evaluated after 13 days, read-out: damage to plant, Foxtail, Giant (100=total damage to plant; 0=no damage to plant)) of the same compound?
Answer: 70%

Question: And the pest or weed control at 15.625 g/ha ([10]; 15.625 g ai/ha, evaluated after 13 days (100=total damage to plant; 0=no damage to plant), read-out: Morningglory, Ivy-leaved damage rating)?
Answer: 0%

Question: And the pest or weed control at 62.5 g/ha ([10]; 62.5 g ai/ha, evaluated after 13 days, read-out: Morningglory, Ivy-leaved damage rating (100=total damage to plant; 0=no damage to plant))?
Answer: 0%

Question: What about the pest or weed control at 250 g/ha ([10]; 250 g ai/ha, evaluated after 13 days, read-out: damage to plant, Morningglory, Ivy-leaved (100=total damage to plant; 0=no damage to plant)) of the same compound?
Answer: 0%

Question: And the pest or weed control at 15.625 g/ha ([11]; 15.625 g ai/ha, evaluated after 13 days (100=total damage to plant; 0=no damage to plant), read-out: Pigweed, Redroot damage rating)?
Answer: 0%

Question: What about the pest or weed control at 62.5 g/ha ([11]; 62.5 g ai/ha, evaluated after 13 days, read-out: Pigweed, Redroot damage rating (100=total damage to plant; 0=no damage to plant)) of the same compound?
Answer: 0%

Question: And the pest or weed control at 250 g/ha ([11]; 250 g ai/ha, evaluated after 13 days, read-out: damage to plant, Pigweed, Redroot (100=total damage to plant; 0=no damage to plant))?
Answer: 30%

Question: What about the pest or weed control at 15.625 g/ha ([12]; 15.625 g ai/ha, evaluated after 13 days (100=total damage to plant; 0=no damage to plant), read-out: Velvetleaf damage rating) of the same compound?
Answer: 0%

Question: And the pest or weed control at 62.5 g/ha ([12]; 62.5 g ai/ha, evaluated after 13 days, read-out: Velvetleaf damage rating (100=total damage to plant; 0=no damage to plant))?
Answer: 0%

Question: What about the pest or weed control at 250 g/ha ([12]; 250 g ai/ha, evaluated after 13 days, read-out: damage to plant, Velvetleaf (100=total damage to plant; 0=no damage to plant)) of the same compound?
Answer: 10%
